Data reported in the supplement of paper PMC10307832.

What was measured:
Assay in all cases: relative viability (nuclei count vs DMSO), 5 days (fraction); higher = more cells survive
Trametinib + Pictilisib = compound: CC(=O)Nc1cccc(-n2c(=O)n(C3CC3)c(=O)c3c(Nc4ccc(I)cc4F)n(C)c(=O)c(C)c32)c1 [Trametinib] + CS(=O)(=O)N1CCN(Cc2cc3nc(-c4cccc5[nH]ncc45)nc(N4CCOCC4)c3s2)CC1 [Pictilisib] (partner 1 µM)
In short: (§1)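 The day after seeding in 1536-well plates, lung cancer cell lines were treated by pin tool with a single drug, or with a fixed anchor-drug dose together with five library-drug doses (not always all listed) in √10 steps. After 5 days, a combined fix-and-stain solution (final 0.05% Triton X-100, 1% formaldehyde, 1 ug/ml Hoechst) was added. Nuclei counted on 4× images gave relative viability as treated counts over vehicle counts, reported as the median of duplicate plates.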

Trametinib + Dasatinib = compound: CC(=O)Nc1cccc(-n2c(=O)n(C3CC3)c(=O)c3c(Nc4ccc(I)cc4F)n(C)c(=O)c(C)c32)c1 [Trametinib] + Cc1nc(Nc2ncc(C(=O)Nc3c(C)cccc3Cl)s2)cc(N2CCN(CCO)CC2)n1 [Dasatinib] (partner 0.075 µM)
In short: as §1

[1] = compound: CN1C=C(C2=CC=CC=C21)/C=C\3/C4=C(C=CC=N4)NC3=O + COc1cccc2cc(-c3nc([C@H]4CC[C@H](C(=O)O)CC4)n4ncnc(N)c34)[nH]c12 [OSI-027] (partner 0.5 µM)
In short: as §1

[2] = compound: CN1C=C(C2=CC=CC=C21)/C=C\3/C4=C(C=CC=N4)NC3=O + N=C(N)NC(=N)NCCc1ccccc1 [Phenformin] (partner 250 µM)
In short: as §1

| Cell Line | relative viability (Trametinib + Pictilisib; first compound 0.0025 µM) | relative viability (Trametinib + Pictilisib; first compound 0.007906 µM) | relative viability (Trametinib + Pictilisib; first compound 0.025 µM) | relative viability (Trametinib + Pictilisib; first compound 0.07906 µM) | relative viability (Trametinib + Pictilisib; first compound 0.25 µM) | relative viability (Trametinib + Dasatinib; first compound 0.0025 µM) | relative viability (Trametinib + Dasatinib; first compound 0.007906 µM) | relative viability (Trametinib + Dasatinib; first compound 0.025 µM) | relative viability (Trametinib + Dasatinib; first compound 0.07906 µM) | relative viability (Trametinib + Dasatinib; first compound 0.25 µM) | relative viability ([1]; first compound 0.02 µM) | relative viability ([1]; first compound 0.06325 µM) | relative viability ([1]; first compound 0.2 µM) | relative viability ([1]; first compound 0.6325 µM) | relative viability ([1]; first compound 2 µM) | relative viability ([2]; first compound 0.02 µM) | relative viability ([2]; first compound 0.06325 µM) | relative viability ([2]; first compound 0.2 µM) | relative viability ([2]; first compound 0.6325 µM) | relative viability ([2]; first compound 2 µM) |
| --- | --- | --- | --- | --- | --- | --- | --- | --- | --- | --- | --- | --- | --- | --- | --- | --- | --- | --- | --- | --- |
| NCI-H1563 | 0.624 | 0.72 | 0.652 | 0.572 | 0.536 | 0.466 | 0.509 | 0.467 | 0.438 | 0.464 | 0.741 | 0.75 | 0.743 | 0.778 | 0.75 | 0.627 | 0.64 | 0.635 | 0.672 | 0.684 |
| NCI-H1650 | 0.608 | 0.61 | 0.448 | 0.364 | 0.113 | 0.337 | 0.368 | 0.344 | 0.298 | 0.16 | 0.55 | 0.541 | 0.437 | 0.458 | 0.539 | 0.401 | 0.451 | 0.362 | 0.345 | 0.397 |
| NCI-H1651 | 0.5 | 0.488 | 0.406 | 0.49 | 0.389 | 0.487 | 0.384 | 0.404 | 0.284 | 0.217 | 0.615 | 0.724 | 0.65 | 0.66 | 0.733 | 0.377 | 0.344 | 0.305 | 0.327 | 0.397 |
| NCI-H1666 | 0.267 | 0.371 | 0.276 | 0.255 | 0.244 | 0.812 | 0.841 | 0.755 | 0.666 | 0.506 | 0.853 | 0.914 | 0.842 | 0.729 | 0.818 | 0.57 | 0.527 | 0.481 | 0.577 | 0.494 |
| NCI-H1734 | 0.439 | 0.448 |  | 0.362 | 0.299 | 0.54 | 0.592 | 0.399 | 0.56 | 0.387 | 0.581 | 0.631 |  | 0.68 | 0.565 | 0.412 | 0.354 |  | 0.376 | 0.373 |
| NCI-H1755 | 0.396 | 0.348 | 0.248 | 0.331 | 0.228 | 0.409 | 0.433 | 0.492 | 0.427 | 0.322 | 0.619 | 0.654 | 0.655 | 0.683 | 0.644 | 0.532 | 0.537 | 0.523 | 0.263 | 0.571 |
| NCI-H1792 | 0.227 | 0.183 | 0.182 | 0.152 | 0.104 | 0.694 | 0.515 | 0.652 | 0.549 | 0.396 | 0.72 | 0.71 | 0.768 |  | 0.464 | 0.442 | 0.245 |  | 0.297 | 0.237 |
| NCI-H1793 | 0.4 | 0.314 | 0.169 | 0.307 | 0.232 | 0.26 | 0.25 | 0.244 | 0.212 | 0.242 | 0.283 | 0.252 | 0.248 | 0.244 | 0.197 | 0.393 | 0.41 | 0.314 | 0.403 | 0.368 |
| NCI-H1915 | 0.963 | 0.466 | 0.317 | 0.287 | 0.24 | 0.273 | 0.203 | 0.196 | 0.109 | 0.0747 | 0.621 | 0.635 | 0.665 | 0.673 | 0.761 | 0.331 | 0.361 | 0.365 | 0.347 | 0.36 |
| NCI-H1944 | 0.333 | 0.307 | 0.253 | 0.278 | 0.262 | 0.193 | 0.177 | 0.164 | 0.144 | 0.145 | 0.433 | 0.368 |  | 0.423 | 0.351 | 0.21 | 0.181 |  | 0.181 | 0.167 |
| NCI-H1975 | 0.252 | 0.199 | 0.137 | 0.162 | 0.179 | 0.28 | 0.218 | 0.15 | 0.172 | 0.123 | 0.698 | 0.739 | 0.828 | 0.646 | 0.449 | 0.392 | 0.378 | 0.318 | 0.389 | 0.402 |
| NCI-H1993 | 0.864 | 0.913 | 0.792 | 0.806 | 0.897 | 0.51 | 0.521 | 0.505 | 0.521 | 0.551 | 0.454 | 0.515 | 0.587 | 0.571 | 0.577 | 0.544 | 0.432 | 0.431 | 0.55 | 0.509 |
| NCI-H2009 | 0.502 | 0.366 | 0.148 | 0.206 | 0.208 | 0.203 | 0.169 | 0.143 | 0.168 | 0.157 | 0.684 | 0.616 | 0.668 | 0.688 | 0.642 | 0.486 | 0.518 | 0.509 | 0.502 | 0.513 |
| NCI-H2023 | 0.213 | 0.141 | 0.137 | 0.175 | 0.143 | 0.484 | 0.485 | 0.515 | 0.34 | 0.221 | 0.395 | 0.351 | 0.231 | 0.337 | 0.316 | 0.395 | 0.376 | 0.361 | 0.409 | 0.418 |
